The test system of this assay is Acute Musculoskeletal Pain. The assay can be described thus: Randomized active controlled study of BSC-4 in adult patients with acute musculoskeletal pain (NRS, PRS, PPR, MPR, PGIC). Type of assay: in vivo, human. The text has this:
A Randomized Active Controlled Study to Assess the Efficacy of Sesame Oil Loaded with Boswellia Extract and Curcuminoid Composition (BSC-4) in Adult Patients with Acute Musculoskeletal Pain. Sample size for the study: 88 Subjects were randomized with 1:1 ratio of male and female in each group. Subject selection—Subjects were selected from the screening site who were ready to give a voluntary informed consent and who meets study inclusion criteria. • 1. Adult patient, Male or female between 18-65 years of age. • 2. A score of 5 or above on the Numerical Rating Scale. • 3. Patients having acute musculoskeletal pain which occurred within 24 hours before presentation e.g. headache musculoskeletal injuries, myalgia, neck pain, limb pain, low back pain, joint pain, widespread musculoskeletal pain, painful uncomplicated acute soft tissue injury of the upper or lower extremity, including acute injuries of ligaments, tendons, or muscles (including Grade 1), not requiring admittance to hospital. • 4. Willing to give voluntary informed consent. Visit 1, randomization; subject were provided BSC-4 or Paracetamol as per the pre-documented randomization list accessed only by pharmacist. Patients were entering the NRS, PRS, and PGIC in the diary before and after 2 hour of taking the dose. Follow up calls were made over phone for patents compliance to treatment, diary completion. The follow up on day 3 the patient were reminded to bring the diary for review and bottle for IP accountability at the next visit. Visit 2, Physical examination, vitals, and patient diary were checked. Post dose (2 hours) pain intensity using NRS, pain relief using categorical PRS, and patient's global impression of change (PGIC) were recoded. Visit 3, next visit on 6th day from the visit 1, Patients entered the NRS, PRS, and PGIC in the diary before and after 2 hrs of taking the dose. Follow up calls were made over phone for their compliance to treatment, diary completion. The follow up on day 6 the patient were reminded to bring the diary for review and bottle for IP accountability at the next visit. Physical examination, vitals, and patient diary were checked. Post dose (2 hours) pain intensity using NRS, pain relief using categorical PRS, and patient's global impression of change (PGIC) were recorded. The NRS is an 11-point scales in which 0 represents ‘no pain’ and 10 represents the worst pain possible. The patient were asked to rate their pain intensity as a number from 0 to 10. Alternatively, for better conception it may be explained as below. The NRS were recorded on screening and those patients who have 5 or above score only were enrolled into the study. After the first dose the patient were give the pain intensity rating every 30 minutes up to 6 hours post dose for calculating SPID 6 hrs. The NRS was included in the diary and the patient was required to give the pain intensity every morning before taking the dose and 2 hrs after dose until the end of the study. The average of the recorded data is provided in a graphical form in FIG. 7 (b). The average percentage change of patents when they visited the centre on day 3 and day 7 is provided below. The pain relief scale is a categorical scale having a positive progression from ‘No relief’ to ‘complete relief’. After the first dose the patient rated the pain relief every 30 minutes up to 6 hours for the assessment of Total pain relief 6 hours. The average pain relief score for the 6 hours test was recorded and represented in graphical form in FIG. 8 (a). The pain relief scale was included in the diary and the patient was required to give the pain relief every morning before taking the dose and 2 hours after dose until the end of the study. The average pain relief score for the seven days test was recorded in diary and represented in graphical form in FIG. 8 (b). After dosing the two stop watches were given to the patient. The patient had to stop one of the watches when they felt relief from pain. […]

Bounds are passed on as bounds.

As for `CC(=O)Nc1ccc(O)cc1` [Paracetamol], under “FIG. 7(a), 0-10 scale, baseline around 6”, the “NRS score in six hours” value is recorded as 2. Further, the “NRS score by the end of 7th day” value (FIG. 7(b), 0-10 scale, baseline close to 6) is reported as roughly 1. For the same molecule, the “PRS score in six hours” value (FIG. 8(a), scale 1 No Relief to 5 Complete Relief, baseline around 1) is given as 3. Besides, the “PRS score by the end of 7th day” value (FIG. 8(b), scale 1-5, baseline close to 1) was roughly 3. For the same molecule, the “Percentage change in pain intensity at 6 hours” value (NRS, 6 hours after first dose) worked out at 72.1%. Besides, the “Percentage change in pain intensity in 7 days, day 3” value (NRS, day 3) is 24.8%. Further, the “Percentage change in pain intensity in 7 days, day 7” value (NRS, day 7) is listed as 83.62%. The “Percentage change in pain relief at 6 hours” value (PRS, 6 hours after first dose, threshold reached by the n patients in the same cell) is on record as greater than 75%. In addition, the “Number of patients (n) with the stated percentage change in pain relief at 6 hours” value (PRS, 6 hours, of n = 44 per group, >75% change) was 30. For the same molecule, the “Number of patients (n) with the stated percentage change in pain relief, Day 3” value (PRS, Day 3, of n = 44 per group, >50% change) was determined as 20. Moreover, the “Percentage change in pain relief, Day 3” value (PRS, Day 3, threshold reached by the n patients in the same cell) was greater than 50%. The “Number of patients (n) with the stated percentage change in pain relief, Day 7” value (PRS, Day 7, of n = 44 per group, >75% change) is recorded as 37. Moreover, under “PRS, Day 7, threshold reached by the n patients in the same cell”, the “Percentage change in pain relief, Day 7” value was greater than 75%. Moreover, where the note is “average time to meaningful pain relief (MPR), censored at 6 hours”, the “Meaningful pain relief” value is 4.51 h. Further, the “Perceptible pain relief” value (average time to perceptible pain relief (PPR), stop watch) turned out to be 2.62 h. Besides, the “PGIC score, Day 2” value (scale 1 Very Much Improved to 7 Very Much Worse, Day 2) is recorded as 3. The “PGIC score, Day 3” value (scale 1 Very Much Improved to 7 Very Much Worse, Day 3) is listed as 3. Moreover, the “PGIC score, Day 4” value (scale 1 Very Much Improved to 7 Very Much Worse, Day 4) came out at 3. Besides, the “PGIC score, Day 5” value (scale 1 Very Much Improved to 7 Very Much Worse, Day 5) was 3. Besides, for the setting “scale 1 Very Much Improved to 7 Very Much Worse, Day 6”, the “PGIC score, Day 6” value is reported as 3. Besides, the “PGIC score, Day 7” value (scale 1 Very Much Improved to 7 Very Much Worse, Day 7) amounted to 2.

For the origin of these results see patent US12527833B2, “Pharmaceutical composition made from hydrophobic phytochemicals dispersed in sesame oil to enhance bioactivity” (ARJUNA NATURAL PVT. LTD., priority 2017, dated 2026).
